In ChEMBL document CHEMBL3988442, “University of Dundee, Small-Polar-MMV Screening Library” (2021):
Where “and” joins values, the source holds several entries; their conditions need not be identical. Equal values may be shown once.

Columns and labels:
[1] = microbe, parasite or virus in culture; conditions: Mycobacterium tuberculosis, 72 h, read-out: pIC50 (converted)
[2] = system: Mycobacterium tuberculosis; assay: Cornell M. t heat shock assay; format: functional, organism-based; conditions: for IC50: Mycobacterium tuberculosis
[3] = microbe, parasite or virus in culture; conditions: Mycobacterium tuberculosis, 96 h, read-out: pIC50 (converted)
Plasmodium falciparum = assay: Calibr Malaria Delayed Death Assay SOP; format: functional, organism-based; conditions: for IC50: Plasmodium falciparum
ClpP1P2 = ClpP1P2 (Mycobacterium tuberculosis (strain ATCC 25618 / H37Rv), UniProt P9WPC3+P9WPC5); assay: in vitro assay to detect presence of AMC directly proportional to the activity of ClpP1P2. GHDDI collaboration.; format: functional
[4] = In vitro enzyme assay to detect hydrolysis of chlorophenol red-beta-D-[…] directly proportional to the number of Toxoplasma stably expressing beta-galactosidase; format: functional, organism-based, Toxoplasma gondii; conditions: for IC50: Toxoplasma gondii

ClpP1P2, sequence (P9WPC5 whole entry): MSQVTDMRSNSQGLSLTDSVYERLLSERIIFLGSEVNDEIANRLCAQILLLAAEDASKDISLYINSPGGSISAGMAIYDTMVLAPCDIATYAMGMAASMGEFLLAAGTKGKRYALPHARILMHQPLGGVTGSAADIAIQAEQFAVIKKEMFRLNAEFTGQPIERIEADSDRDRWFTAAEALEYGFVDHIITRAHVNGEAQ
ClpP1P2, sequence (P9WPC3 whole entry): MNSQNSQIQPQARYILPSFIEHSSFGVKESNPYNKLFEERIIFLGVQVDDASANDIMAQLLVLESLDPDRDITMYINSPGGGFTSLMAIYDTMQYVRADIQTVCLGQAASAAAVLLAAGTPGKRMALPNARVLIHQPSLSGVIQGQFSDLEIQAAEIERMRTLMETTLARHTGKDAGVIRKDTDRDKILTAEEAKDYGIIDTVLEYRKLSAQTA

| SMILES | IC50 [2] [µM] | other results |
| --- | --- | --- |
| O=C(NCCc1cccc(F)c1)C1(n2cnnn2)CCCCC1 | 11.1 | IC50 [1]: 46.9 µM; IC50 [3]: 43.2 µM |
| Cc1cc(C(=O)N2CCN(c3nc4c(C(C)C)cccc4s3)CC2)no1 | 57.9 | IC50 [1]: > 50.1 µM; IC50 [3]: 42.6 µM |
| Cc1ccc(S(=O)(=O)NCCc2ccoc2)s1 | 31 | IC50 [1]: 38 µM; IC50 [3]: 46.2 µM |
| CCCNC(=O)C(C)n1nc(-c2ccc(C)o2)cc(N)c1=O (stereo not given) | > 100 |  |
| Cc1cc2c(cc1Cl)C=CC1(CCN(CC(=O)NC3CCCC3)CC1)O2 | 49.9 | IC50 [1]: 45.4 µM; IC50 [3]: > 50.1 µM |
| c1cnc(N2CCC(c3csc(Nc4cnccn4)n3)CC2)nc1 | > 100 | IC50 (Plasmodium falciparum): 10.8 nM |
| Fc1ccccc1CN1CCC[C@@H](Cn2nnc(-c3cccs3)n2)C1 | > 100 | IC50 [1]: 16.9 µM; IC50 [3]: 33.3 µM |
| CC(C)Cn1nc(-c2ccc(C(=O)O)cc2)cc1-c1ccc(F)cc1 | 97.1 |  |
| Cn1ccnc1-c1nc(NC2CCCC2)ncc1-c1cccc(F)c1 | 40.3 |  |
| CC(C)C[C@H](N)COc1cccc(F)c1Oc1cccc(Cl)c1 | 13.9 | IC50 [1]: 18.5 µM; IC50 (ClpP1P2): > 100 µM; IC50 [3]: 22.6 µM |
| CC(C)C[C@H](N)COc1cccc(F)c1Oc1ccc(Cl)cc1 | 20.5 | IC50 [1]: 17.6 µM; IC50 [3]: 21 µM |
| COc1cccc(OC)c1CNC(Cc1ccsc1)c1ccc(C)cn1 (stereo not given) | 27 | IC50 [1]: 16.4 µM; pIC50 (Plasmodium falciparum): 5.969; IC50 (Plasmodium falciparum): 1090 nM; IC50 [3]: 12.5 µM |
| Cc1cccc(CN2CCCC2c2cncc(Nc3nncs3)n2)c1 (stereo not given) | 17.1 |  |
| COc1ccc(CNC(Cc2ccsc2)c2ccc(C)cn2)c(OC)c1 (stereo not given) | 17.9 | IC50 [1]: 48.5 µM; IC50 [3]: > 50.1 µM |
| CNC(=O)C1(C)CN(Cc2cn(C)c3ccc(F)cc23)CCO1 (stereo not given) | > 100 |  |
| CCn1ccc(-c2cc(NCCCOc3cccc(C)c3)nc(C)n2)n1 | 55.1 | IC50 [1]: 30.2 µM; pIC50 [2]: 4.417; IC50 [3]: 18.9 µM |
| Cc1cccc(CNC(Cc2ccsc2)c2nccs2)n1 (stereo not given) | 49.9 |  |
| Nc1cc(N2CCOCC(Cc3ccc4[nH]ccc4c3)C2)ncn1 (stereo not given) |  | IC50 [1]: 28.8 µM; pIC50 [2]: < 4 and < 4.31; IC50 [3]: 13.4 µM |
| COc1cc(C2Nc3cc(Cl)ccc3C3=NCCN32)ccc1O (stereo not given) | > 100 |  |
| CN1CCCCC1c1ncc2c(n1)CCN(CCCc1ccccc1)C2 (stereo not given) | 39.4 | IC50 [1]: 44.5 µM; pIC50 [2]: 4.46; IC50 [3]: 41.2 µM |
| CN1CCCCC1c1ncc2c(n1)CCN(Cc1ccc(Cl)c(F)c1)C2 (stereo not given) | 50.6 | pIC50 (Plasmodium falciparum): 5.794; IC50 (Plasmodium falciparum): 1550 nM; pIC50 [2]: 4.295 |
| Nc1cc(-c2cccs2)nn(CC(=O)NCC2CCCCC2)c1=O | > 100 |  |
| Cc1cc(-c2cnc(NCc3ccccn3)nc2C(C)C)on1 | > 100 |  |
| COc1ccccc1CN1CCc2c(nc(-c3ccccn3)[nH]c2=O)C1 | 3.35 |  |
| CCOC(=O)C(C)Nc1cccc(COCc2ccco2)c1 (stereo not given) | > 100 |  |

| SMILES | IC50 [2] [µM] | other results |
| --- | --- | --- |
| Cc1cc(N2CCOCC2)ccc1NC(C)c1nc(C(C)(C)C)no1 (stereo not given) | > 100 |  |
| Cc1cc(N2CCOCC2)ccc1NC(C)c1nc(C(C)C)no1 (stereo not given) | > 100 |  |
| CCN1CCN(c2ccc(NC(C)c3nc(C(C)C)no3)c(C)c2)CC1 (stereo not given) | > 100 |  |
| CN1CCN(C(=O)c2cnsn2)c2ccc(F)cc21 | 67.4 |  |
| CCOc1cccc(COC(=O)c2cscn2)n1 | > 100 |  |
| CC(CCSc1ccccc1)N1CCN(C(=O)c2cccs2)CC1 (stereo not given) | > 100 |  |
| CCC(NC(=O)Nc1ccc(OC)c(C)c1)c1ccncc1 (stereo not given) | 49.9 |  |
| Cc1cccn2cc(CN3CCCC(c4noc(C5CC5)n4)C3)nc12 (stereo not given) | 46.5 |  |
| O=C(Nc1ccnc2ccnn12)c1ccc(N2CCC(O)CC2)cc1 | 74.1 |  |
| COCCN(C)c1ccc(NCc2ccsc2)nc1 | > 100 |  |
| Cn1c(CCN2CCN(c3ccc(O)cc3)CC2)nc2ccccc21 | 68.5 | pIC50 [4]: 4.61; IC50 [4]: 23.8 µM |
| Cn1c(CCN2CCN(CCc3ccccc3)CC2)nc2ccccc21 | > 100 |  |
| CCNc1ncc(C(=O)NCc2ccc3nsnc3c2)cn1 | > 100 |  |
| CCSCCNc1cc(C)nc2c(C)c(C)nn12 | 23.5 | IC50 [1]: 5.48 µM; IC50 [3]: 7.02 µM |
| COc1ccc(OCc2cc(C(=O)N3CCCCO3)n[nH]2)c(Cl)c1 | > 100 |  |
| Cc1ccccc1C1CCN(CCn2cc(-c3cccc(O)c3)nn2)C1 (stereo not given) | 78.7 |  |
| CC1(c2ccccc2)CCCN(Cc2cncn2C2CC2)C1 (stereo not given) | 45.7 |  |
| COc1ccc2c(c1)OCC(CNc1cc(N)nc(SC)n1)C2 (stereo not given) | 62.6 |  |
| CC(C)Cc1ncc2c(n1)CN(c1nccc(NC(C)C)n1)C2 | 34.5 | IC50 [1]: 23.9 µM; IC50 [3]: 15.5 µM |
| Cc1ccsc1CN(c1nc(CCN)nc2ccccc12)C1CC1 | 49.6 |  |
| CCNC(=O)[C@@H]1C[C@H](NC(=O)Cn2ccnc2)CN1Cc1ccsc1 | > 100 |  |
| Cc1c(CN(C)c2cc(C3CCCNC3)ncn2)[nH]c2ccccc12 (stereo not given) | > 100 |  |
| CC(C)c1nc(N2CCC(N3CCCCCC3)CC2)c2cnn(C)c2n1 | 52.5 |  |
| COc1cc(-c2cc(NC3CCCC3)nc3[nH]ccc23)nc(N)n1 | 2.7 |  |
| O[C@@H]1CN(CC2=Cc3cc(Cl)ccc3OC2)CC[C@H]1N1CCCCCC1 | 52.7 | IC50 [1]: 49.3 µM; IC50 [3]: 46.9 µM |

| SMILES | IC50 [2] [µM] | other results |
| --- | --- | --- |
| CSc1nccc(-c2cccc(-c3ccn(CC4COCCO4)n3)c2)n1 (stereo not given) | 40.3 |  |
| CCCn1cc(-c2ccnc(NC3CCCc4ccccc43)n2)c(C)n1 (stereo not given) | 21.4 |  |
| COc1cccc(S(=O)(=O)NC(=O)CCC2CCCC2)c1 | > 100 |  |
| Cc1noc(NC(=O)c2cccc(Br)c2)n1 | 16 | IC50 [1]: 46.3 µM; pIC50 [2]: 4.54; IC50 [3]: 41.8 µM |
| CCOc1ncccc1NC(=O)N1CCN(c2ccc(O)cc2)CC1 | > 100 |  |
| Cc1ccc(C(C)N(C)Cc2nc3c(cnn3C)c(=O)[nH]2)s1 (stereo not given) | > 100 |  |
| COc1ccccc1C(C)N(C)Cc1nc2c(cnn2C)c(=O)[nH]1 (stereo not given) | > 100 |  |
| Cc1ccc(C2CCCN2S(=O)(=O)N(C)CCc2ccccn2)o1 (stereo not given) | > 100 |  |
| c1ccc2nc(CN3CCCC3c3noc(C4CC4)n3)ccc2c1 (stereo not given) | 23.8 |  |
| Cn1ccnc1C(NCc1ccc(Br)cc1)c1ccccc1 (stereo not given) | 17.7 |  |
| COc1cccc(C(NCc2ccc(SC)cc2)c2nccn2C)c1 (stereo not given) | 6.39 |  |
| COc1ccccc1C(NCc1ccc(SC)cc1)c1nccn1C (stereo not given) | 48.8 |  |
| CSc1ccc(CNC(c2ccc(F)cc2)c2nccn2C)cc1 (stereo not given) | 32.5 |  |
| Cn1ccnc1C(NCc1ccccc1)c1ccc(F)cc1 (stereo not given) | > 100 |  |
| COc1cc(CNC(c2ccccc2)c2nccn2C)cc(OC)c1 (stereo not given) | 2.41 |  |
| Cc1cc(C)cc(CNC(c2ccccc2)c2nccn2C)c1 (stereo not given) | 4.29 |  |
| CCC(=O)N1CCN(C(=O)Cn2cccn2)CC1 | 22.2 |  |
| Cc1cccc(CN2CCN(C(=O)c3cc(C4CC4)[nH]n3)CC2)c1 | 77.1 | IC50 [1]: 25.8 µM; IC50 [3]: 25 µM |
| CCCNC(=O)NC(=O)CNC(C)(C)c1ccc2c(c1)OCCO2 | 23.5 | IC50 [1]: 19 µM; IC50 [3]: 13.3 µM |
| Cc1cnn(CC2CCCN2Cc2nc(C)c3ccccc3n2)c1 (stereo not given) | 34.9 |  |
| Cc1cnn(CC2CCCN2Cc2nc3ccccc3c(=O)[nH]2)c1 (stereo not given) | 17.9 |  |
| O=c1[nH]c(CCN2CCCC2Cn2cncn2)nc2ccccc12 (stereo not given) | 34.3 |  |
| O=c1[nH]c(CCN2CCCC2Cn2cccn2)nc2ccccc12 (stereo not given) | 47.5 |  |
| CC(C)c1ncc2c(n1)CN(Cc1noc(-c3ccccc3)n1)CC2 | 36.9 | IC50 (ClpP1P2): > 100 µM |
| CC(C)c1ncc2c(n1)CN(CCCc1nc3ccccc3o1)CC2 | > 100 |  |

| SMILES | IC50 [2] [µM] | other results |
| --- | --- | --- |
| NC(=O)NC(=O)CCN1CCN(c2nccs2)CC1 | 35.1 |  |
| CC(Cn1cccn1)NCc1csc(COc2ccc(F)cc2)n1 (stereo not given) | 17.2 |  |
| CC(C)C1CCCN1CCCc1nc(-c2cccs2)no1 (stereo not given) | > 100 |  |
| c1ccc(-c2nc(CN3CCCC(Cn4cncn4)C3)cs2)cc1 (stereo not given) | 54.6 |  |
| O=C(Cc1c[nH]c2ccccc12)N1CCC(Nc2ccccc2)CC1 | > 100 |  |
| CC(C)Oc1ncccc1CNC(=O)c1ccccn1 | > 100 |  |
| O=C(c1cc2cc(I)ccc2[nH]1)N1CCC(Nc2cccnn2)CC1 | 48.7 |  |
| CC(C)N(C(=O)Cn1c(-c2ccco2)cc2cccnc21)C(C)C | > 100 | IC50 (ClpP1P2): > 100 µM |
| Cc1csc(C(Cc2ccsc2)NC(=O)CN(C)Cc2ccccn2)n1 (stereo not given) | > 100 | IC50 (ClpP1P2): > 100 µM |
| CCOc1ccccc1-c1cc(N)[nH]n1 | 26.4 |  |
| CN(C)[C@@H]1CN(Cc2ccccc2O)C[C@H]1c1cn(C)c2ccccc12 | 28.3 | IC50 (ClpP1P2): > 100 µM |
| c1nnc(Nc2cncc(C3CCCN3)n2)s1 (stereo not given) | 6.43 |  |
| NCC1CCC(c2c(C(=O)NCCO)sc3ccccc23)CC1 (stereo not given) | > 100 |  |
| Cl.Clc1cccc(N[C@H]2CCCN[C@H]2Cc2ccccc2)c1 | 7.22 | IC50 [1]: 8.59 µM; pIC50 (Plasmodium falciparum): 6.045; IC50 (Plasmodium falciparum): 981 nM; IC50 [3]: 17 µM |
| Cc1cccc(CNC(Cc2ccsc2)c2nc(C)c(C)s2)n1.Cl (stereo not given) | 8.25 | IC50 [1]: 31.7 µM; pIC50 [2]: 5.24; IC50 (ClpP1P2): > 100 µM; IC50 [3]: > 50.1 µM |
| CC(=O)N1CCC[C@@H](NCc2c[nH]c3ccccc23)[C@@H]1c1ccc(C)s1 | > 100 |  |
| CCN1c2ccc(-c3cncn3CC(=O)NC(C)(C)C)cc2CC1C (stereo not given) | > 100 |  |
| Cc1ccc(CNC(c2cccc(F)c2)c2nccn2C)o1 (stereo not given) | > 100 |  |
| CSc1ccc(CNC(c2ccccc2F)c2nccn2C)cc1 (stereo not given) | 16.4 |  |
| Cc1ccc(CNC(c2ccccc2)c2nccn2C)cc1 (stereo not given) | 19.9 |  |
| COc1ccc(CCNCc2c(C)nn(C)c2N(C)C)cc1OC | > 100 |  |
| Clc1cccc(C[C@@H]2NCCC[C@@H]2Nc2cccc(Cl)c2)c1 | 5.94 | IC50 [1]: 6.67 µM; IC50 [3]: 9.04 µM |
| O=C(CN1CC(c2nc(C3CC3)no2)C1)N1CCOCC1.O=C(O)C(=O)O | > 100 | pIC50 [4]: 5.075; IC50 [4]: 5.21 µM |
| Cc1ccc(CN(CCCn2ccnc2)Cc2cc(F)ccc2F)s1.O=C(O)CC(O)(CC(=O)O)C(=O)O | 18.9 | IC50 [4]: 7.16 µM; pIC50 [2]: 4.62 |
